Results reported in patent publication US9730938B2, “Bruton's tyrosine kinase inhibitor combinations and uses thereof” (Pharmacyclics LLC, priority 2014, dated 2017).

How the values were obtained:
OCI-LY-10 [1] = assay: Combined drug treatment cell viability, CellTiter-Glo assay (Example 2); type: cell-based; settings: JAK3 10 μM / MCL-1 3 μM / medium alone, 3 days
HBL-1 = assay: as above; type: cell-based; settings: JAK3 10 μM / MCL-1 3 μM / medium alone, 3 days
[2] = system: TMD8 cells expressing PIM1 L2V; assay: Cell growth of modified TMD8 cells treated with ibrutinib; settings: Homo sapiens
[3] = system: TMD8 cells expressing PIM1 P81S; assay: as above; settings: Homo sapiens
[4] = system: TMD8 cells expressing PIM1-WT; assay: as above; settings: Homo sapiens
OCI-LY-3 [5] = assay: Combined drug treatment cell viability, CellTiter-Glo assay (Example 1); type: cell-based; settings: IDH1i 10 uM / MALT1i 5 uM / medium alone, 3 days
Method: (§1) DLBCL cells at either 1×10^4 cells or 2×10^4 cells were plated onto each well of a 96-W plate (Table 1).
(§2) The stock solutions for the IDH1 inhibitor AGI5198 and the MALT1 inhibitor MI-2 were each prepared at 50 mM concentration.
(§3) The 96-W plate was then incubated for 3 days. Cell viability was examined using a CellTiter-Glo assay.
(§4) A 40 μL of CellTiter-Glo reagent was added directly into each well of the 96-W plate. The plate was then shaken on a Shaker (Labsystem Wellmix) at speed 5 for 10-20 min at room temperature. Next, 100 μL of the mixed medium was transferred to a white, non-transparent, flat bottom 96-W plate for assaying. A Flexstation 3 luminometer was used for detecting and measuring the luminescent signals. Measurements were taken at room temperature.
(§5) In general, the combination is described as synergistic (CI<1), additive (CI=1), or antagonistic (CI>1). Synergism is further separated into very strong synergism (<0.1), strong synergism (0.1-0.3), synergism (0.3-0.7), moderate synergism (0.7-0.85), and slight synergism (0.85-0.9).

OCI-LY-10 [6] = assay: as above; type: cell-based; settings: IDH1i 10 uM / MALT1i 5 uM / medium alone, 3 days
Method: as §1, §2, §3, §4, §5

SU-DHL-2 [7] = assay: as above; type: cell-based; settings: IDH1i 10 uM / MALT1i 200 nM / medium alone, 3 days
Method: as §1, §2, §3, §4, §5

TMD8 [8] = assay: as above; type: cell-based; settings: IDH1i 10 uM / MALT1i 100 nM / medium alone, 3 days
Method: as §1, §2, §3, §4, §5

U2932 [9] = assay: as above; type: cell-based; settings: IDH1i 10 uM / MALT1i 200 nM / medium alone, 3 days
Method: as §1, §2, §3, §4, §5

SU-DHL-2 [10] = assay: Combined drug treatment cell viability, CellTiter-Glo assay (Example 2); type: cell-based; settings: JAK3 10 μM / MCL-1 3 μM / medium alone, 3 days
U2932 [11] = assay: as above; type: cell-based; settings: JAK3 10 μM / MCL-1 3 μM / medium alone, 3 days
TMD8 [12] = assay: as above; type: cell-based; settings: JAK3 10 μM / MCL-1 3 μM / medium alone, 3 days
OCI-LY-3 [13] = assay: as above; type: cell-based; settings: JAK3 10 μM / MCL-1 3 μM / medium alone, 3 days
[14] = system: TMD8 cells expressing PIM1 S97N; assay: Cell growth of modified TMD8 cells treated with ibrutinib; settings: Homo sapiens

Which results are given for C=CC(=O)N1CCC[C@@H](n2nc(-c3ccc(Oc4ccccc4)cc3)c3c(N)ncnc32)C1 [ibrutinib, 1-((R)-3-(4-amino-3-(4-phenoxyphenyl)-1H-pyrazolo[3,4-d]pyrimidin-1-yl)piperidin-1-yl)prop-2-en-1-one]?
luminescence (CellTiter-Glo) (OCI-LY-10 [1]; ibrutinib 0.0512 nM): 46968.14; luminescence (CellTiter-Glo) (OCI-LY-10 [1]; ibrutinib 1.28 nM): 28222.33; luminescence (CellTiter-Glo) (OCI-LY-10 [1]; ibrutinib 6.4 nM): 17144.41; luminescence (CellTiter-Glo) (OCI-LY-10 [1]; ibrutinib 32 nM): 14003.51; luminescence (CellTiter-Glo) (OCI-LY-10 [1]; ibrutinib 160 nM): 13712.84; luminescence (CellTiter-Glo) (OCI-LY-10 [1]; ibrutinib 800 nM): 14708.66; luminescence (CellTiter-Glo) (OCI-LY-10 [1]; ibrutinib 20000 nM): 14261.89; luminescence (CellTiter-Glo) (OCI-LY-10 [1]; ibrutinib 40000 nM): 15817.53; luminescence (CellTiter-Glo) (HBL-1; ibrutinib 0.0512 nM): 46288.31; luminescence (CellTiter-Glo) (HBL-1; ibrutinib 0.256 nM): 42826.48; luminescence (CellTiter-Glo) (HBL-1; ibrutinib 1.28 nM): 43461.99; luminescence (CellTiter-Glo) (HBL-1; ibrutinib 6.4 nM): 38857.83; luminescence (CellTiter-Glo) (HBL-1; ibrutinib 32 nM): 35516.66; luminescence (CellTiter-Glo) (HBL-1; ibrutinib 160 nM): 35090.31; luminescence (CellTiter-Glo) (HBL-1; ibrutinib 800 nM): 35103.71; luminescence (CellTiter-Glo) (HBL-1; ibrutinib 20000 nM): 16831.87; luminescence (CellTiter-Glo) (HBL-1; ibrutinib 40000 nM): 36806.47; EC50 [2]: > 1000 nM; EC50 [3]: > 1000 nM; EC50 [4]: 76 nM; luminescence (CellTiter-Glo) (OCI-LY-3 [5]; ibrutinib 0.0256 nM): 63957.70; luminescence (CellTiter-Glo) (OCI-LY-3 [5]; ibrutinib 0.128 nM): 59441.78; luminescence (CellTiter-Glo) (OCI-LY-3 [5]; ibrutinib 0.64 nM): 63322.70; luminescence (CellTiter-Glo) (OCI-LY-3 [5]; ibrutinib 3.2 nM): 66789.02; luminescence (CellTiter-Glo) (OCI-LY-3 [5]; ibrutinib 16 nM): 64655.70; luminescence (CellTiter-Glo) (OCI-LY-3 [5]; ibrutinib 80 nM): 68972.20; luminescence (CellTiter-Glo) (OCI-LY-3 [5]; ibrutinib 400 nM): 64472.02; luminescence (CellTiter-Glo) (OCI-LY-3 [5]; ibrutinib 2000 nM): 55749.79; luminescence (CellTiter-Glo) (OCI-LY-3 [5]; ibrutinib 10000 nM): 63477.51; luminescence (CellTiter-Glo) (OCI-LY-10 [6]; ibrutinib 0.0256 nM): 61548.88; luminescence (CellTiter-Glo) (OCI-LY-10 [6]; ibrutinib 0.128 nM): 68196.56; luminescence (CellTiter-Glo) (OCI-LY-10 [6]; ibrutinib 0.64 nM): 63983.91; luminescence (CellTiter-Glo) (OCI-LY-10 [6]; ibrutinib 3.2 nM): 51190.81; luminescence (CellTiter-Glo) (OCI-LY-10 [6]; ibrutinib 16 nM): 27324.38; luminescence (CellTiter-Glo) (OCI-LY-10 [6]; ibrutinib 80 nM): 23511.43; luminescence (CellTiter-Glo) (OCI-LY-10 [6]; ibrutinib 400 nM): 23784.91; luminescence (CellTiter-Glo) (OCI-LY-10 [6]; ibrutinib 2000 nM): 24452.84; luminescence (CellTiter-Glo) (OCI-LY-10 [6]; ibrutinib 10000 nM): 24826.24; luminescence (CellTiter-Glo) (SU-DHL-2 [7]; ibrutinib 0.0256 nM): 141202.0; luminescence (CellTiter-Glo) (SU-DHL-2 [7]; ibrutinib 0.128 nM): 146159.1; luminescence (CellTiter-Glo) (SU-DHL-2 [7]; ibrutinib 0.64 nM): 159399.0; luminescence (CellTiter-Glo) (SU-DHL-2 [7]; ibrutinib 3.2 nM): 161613.5; luminescence (CellTiter-Glo) (SU-DHL-2 [7]; ibrutinib 16 nM): 155353.5; luminescence (CellTiter-Glo) (SU-DHL-2 [7]; ibrutinib 80 nM): 164140.7; luminescence (CellTiter-Glo) (SU-DHL-2 [7]; ibrutinib 400 nM): 159908.6; luminescence (CellTiter-Glo) (SU-DHL-2 [7]; ibrutinib 2000 nM): 154426.1; luminescence (CellTiter-Glo) (SU-DHL-2 [7]; ibrutinib 10000 nM): 111485.8; luminescence (CellTiter-Glo) (TMD8 [8]; ibrutinib 0.0256 nM): 32496.06; luminescence (CellTiter-Glo) (TMD8 [8]; ibrutinib 0.128 nM): 32828.16; luminescence (CellTiter-Glo) (TMD8 [8]; ibrutinib 0.64 nM): 29180.29; luminescence (CellTiter-Glo) (TMD8 [8]; ibrutinib 3.2 nM): 31383.77; luminescence (CellTiter-Glo) (TMD8 [8]; ibrutinib 16 nM): 27190.31; luminescence (CellTiter-Glo) (TMD8 [8]; ibrutinib 80 nM): 28263.05; luminescence (CellTiter-Glo) (TMD8 [8]; ibrutinib 400 nM): 25674.76; luminescence (CellTiter-Glo) (TMD8 [8]; ibrutinib 2000 nM): 23421.20; luminescence (CellTiter-Glo) (TMD8 [8]; ibrutinib 10000 nM): 10819.72; luminescence (CellTiter-Glo) (U2932 [9]; ibrutinib 0.0256 nM): 63123.80; luminescence (CellTiter-Glo) (U2932 [9]; ibrutinib 0.128 nM): 57150.28; luminescence (CellTiter-Glo) (U2932 [9]; ibrutinib 0.64 nM): 53722.16; luminescence (CellTiter-Glo) (U2932 [9]; ibrutinib 3.2 nM): 53031.79; luminescence (CellTiter-Glo) (U2932 [9]; ibrutinib 16 nM): 51023.93; luminescence (CellTiter-Glo) (U2932 [9]; ibrutinib 80 nM): 49777.58; luminescence (CellTiter-Glo) (U2932 [9]; ibrutinib 400 nM): 46009.54; luminescence (CellTiter-Glo) (U2932 [9]; ibrutinib 2000 nM): 46858.01; luminescence (CellTiter-Glo) (U2932 [9]; ibrutinib 10000 nM): 37935.94; luminescence (CellTiter-Glo) (SU-DHL-2 [10]; ibrutinib 0.0512 nM): 168606.0; luminescence (CellTiter-Glo) (SU-DHL-2 [10]; ibrutinib 0.256 nM): 180865.8; luminescence (CellTiter-Glo) (SU-DHL-2 [10]; ibrutinib 1.28 nM): 185508.3; luminescence (CellTiter-Glo) (SU-DHL-2 [10]; ibrutinib 6.4 nM): 178437.4; luminescence (CellTiter-Glo) (SU-DHL-2 [10]; ibrutinib 32 nM): 180464.1; luminescence (CellTiter-Glo) (SU-DHL-2 [10]; ibrutinib 160 nM): 183505.7; luminescence (CellTiter-Glo) (SU-DHL-2 [10]; ibrutinib 800 nM): 181165.6; luminescence (CellTiter-Glo) (SU-DHL-2 [10]; ibrutinib 20000 nM): 4650.6; luminescence (CellTiter-Glo) (SU-DHL-2 [10]; ibrutinib 40000 nM): 180616.8; luminescence (CellTiter-Glo) (U2932 [11]; ibrutinib 0.0512 nM): 62396.81; luminescence (CellTiter-Glo) (U2932 [11]; ibrutinib 0.256 nM): 60528.12; luminescence (CellTiter-Glo) (U2932 [11]; ibrutinib 1.28 nM): 60811.50; luminescence (CellTiter-Glo) (U2932 [11]; ibrutinib 6.4 nM): 58640.71; luminescence (CellTiter-Glo) (U2932 [11]; ibrutinib 32 nM): 57009.94; luminescence (CellTiter-Glo) (U2932 [11]; ibrutinib 160 nM): 55090.45; luminescence (CellTiter-Glo) (U2932 [11]; ibrutinib 800 nM): 54579.83; luminescence (CellTiter-Glo) (U2932 [11]; ibrutinib 20000 nM): 18900.83; luminescence (CellTiter-Glo) (U2932 [11]; ibrutinib 40000 nM): 55951.28; luminescence (CellTiter-Glo) (TMD8 [12]; ibrutinib 0.0512 nM): 28324.66; luminescence (CellTiter-Glo) (TMD8 [12]; ibrutinib 0.256 nM): 28516.97; luminescence (CellTiter-Glo) (TMD8 [12]; ibrutinib 1.28 nM): 28727.97; luminescence (CellTiter-Glo) (TMD8 [12]; ibrutinib 6.4 nM): 28578.40; luminescence (CellTiter-Glo) (TMD8 [12]; ibrutinib 32 nM): 28802.75; luminescence (CellTiter-Glo) (TMD8 [12]; ibrutinib 160 nM): 29096.55; luminescence (CellTiter-Glo) (TMD8 [12]; ibrutinib 800 nM): 25963.61; luminescence (CellTiter-Glo) (TMD8 [12]; ibrutinib 20000 nM): 5261.63; luminescence (CellTiter-Glo) (TMD8 [12]; ibrutinib 40000 nM): 22488.80; luminescence (CellTiter-Glo) (OCI-LY-3 [13]; ibrutinib 0.0512 nM): 80095.49; luminescence (CellTiter-Glo) (OCI-LY-3 [13]; ibrutinib 0.256 nM): 81910.97; luminescence (CellTiter-Glo) (OCI-LY-3 [13]; ibrutinib 1.28 nM): 89730.66; luminescence (CellTiter-Glo) (OCI-LY-3 [13]; ibrutinib 6.4 nM): 81709.84; luminescence (CellTiter-Glo) (OCI-LY-3 [13]; ibrutinib 32 nM): 80596.96; luminescence (CellTiter-Glo) (OCI-LY-3 [13]; ibrutinib 160 nM): 84190.37; luminescence (CellTiter-Glo) (OCI-LY-3 [13]; ibrutinib 800 nM): 82227.41; luminescence (CellTiter-Glo) (OCI-LY-3 [13]; ibrutinib 20000 nM): 69084.64; luminescence (CellTiter-Glo) (OCI-LY-3 [13]; ibrutinib 40000 nM): 75112.98; EC50 [14]: > 1000 nM
